# Reference: patent publication US11446365B2, “Antimalarial enzyme conjugates, kits containing same, and methods of producing and using same” (priority 2017, dated 2022)
# Test system: P. yoelii parasites in erythrocytes
# Assay: Selenomethionine prodrug, 24 hour culture of parasitized blood, damaged parasites by flow cytometry
# Assay type: cell-based
# Description: Blood was harvested and pooled from three mice infected with the murine Plasmodium parasite P. yoelii. Pooled blood parasitemia was 4.0%. Erythrocytes were extracted from the blood and washed to remove debris. The cells were then incubated with excess mCGL-AV for 3 hours. After incubation, the cells were then washed to remove excess protein and debris. Samples were then incubated under an oxygen reduced atmosphere mimicking the conditions of blood within the body for 24 hours with varying concentrations of selenomethionine. Damaged parasites were enumerated via flow cytometry. The number of damaged parasites is expressed as a percentage of the total number of parasites. Error bars represent the standard error of n=3 repeats of the assay for the same pooled blood.
# To insure that healthy red blood cells were not damaged by such high concentrations of mCGL-AV, samples of treated and untreated blood were imaged using light microscopy to search for signs of hemolysis.
smiles,measurement,setting,value
C[Se]CC[C@H](N)C(=O)O [selenomethionine],"impact on parasite viability, selenomethionine by itself","24 hours of culture, varying concentrations of selenomethionine, no fusion protein",no significant impact on parasite viability
same,damaged parasites with selenomethionine plus mCGL-AV,"excess mCGL-AV 3 hours, wash, then 24 hours with varying concentrations of selenomethionine",boosted the cytotoxicity of the fusion protein
